Assay results from the NIST ThermoML archive (doi:10.1021/je020220n).
Values joined by “and” are separate entries in the source; they are usually repeats but may differ in a detail not shown here. Identical values can stand only once.

Conditions: Crystal

[Cl][Er]([Cl])[Cl] [erbium trichloride]
Conditions | vapor or sublimation pressure
880 K | 1.07e-05 kPa
892 K | 1.58e-05 kPa
897 K | 2.14e-05 kPa
903 K | 2.69e-05 kPa
907 K | 1.7e-05 kPa and 3.24e-05 kPa
913 K | 4.27e-05 kPa
916 K | 5.13e-05 kPa
920 K | 3.39e-05 kPa
921 K | 5.89e-05 kPa
923 K | 3.39e-05 kPa
925 K | 4.27e-05 kPa and 6.92e-05 kPa
929 K | 5.01e-05 kPa
932 K | 5.01e-05 kPa and 4.27e-05 kPa
933 K | 0.0001023 kPa
935 K | 5.01e-05 kPa and 0.0001072 kPa
936 K | 6.76e-05 kPa
943 K | 0.0001445 kPa [middle of 4 runs]
948 K | 0.0001349 kPa
949 K | 8.51e-05 kPa
950 K | 0.0001995 kPa
951 K | 0.0001995 kPa
952 K | 0.0001175 kPa
953 K | 0.0001349 kPa
954 K | 0.0001 kPa
958 K | 0.0001514 kPa and 0.0001862 kPa
959 K | 0.0002754 kPa
960 K | 0.0002754 kPa
963 K | 0.0001698 kPa [middle of 4 runs]
968 K | 0.0002188 kPa and 0.0002692 kPa and 0.0003715 kPa
970 K | 0.0002188 kPa and 0.0003802 kPa
972 K | 0.0002692 kPa
976 K | 0.0002344 kPa
977 K | 0.0003981 kPa and 0.0002455 kPa
978 K | 0.0003236 kPa
981 K | 0.0003715 kPa
983 K | 0.0004898 kPa
986 K | 0.0004365 kPa
988 K | 0.0003467 kPa
990 K | 0.000631 kPa and 0.0004074 kPa and 0.0005012 kPa
995 K | 0.0005754 kPa and 0.000631 kPa
997 K | 0.0008318 kPa
998 K | 0.0004786 kPa
999 K | 0.0006761 kPa
1003 K | 0.0006607 kPa and 0.0008511 kPa
1004 K | 0.0007762 kPa
1008 K | 0.0009333 kPa and 0.0006761 kPa
1012 K | 0.001071 kPa
1013 K | 0.001097 kPa
1014 K | 0.001412 kPa
1016 K | 0.001071 kPa
1017 K | 0.001288 kPa
1018 K | 0.0009333 kPa
1021 K | 0.001445 kPa
1022 K | 0.001514 kPa
1025 K | 0.00195 kPa and 0.001698 kPa
1028 K | 0.001318 kPa
1030 K | 0.001514 kPa and 0.00195 kPa
1031 K | 0.002138 kPa
1033 K | 0.002512 kPa
1034 K | 0.002512 kPa
1037 K | 0.002455 kPa
1040 K | 0.002818 kPa and 0.003162 kPa and 0.002344 kPa
